Measurements from US10829473B2, “Modulators of the cystic fibrosis transmembrane conductance regulator protein and methods of use” (AbbVie Overseas S.Á.R.L., priority 2017, dated 2020).
Where two headings read alike, the source gives them in different places.

Target: T1, F508delCFTR (Homo sapiens, UniProt P13569, DEL508-508)
T1 construct: expressed in transfected cells; host or cells: CFBE41o- human lung derived epithelial cells (CFBE41o-F508delCFTR-HRP), doxycycline-inducible
Assay: Cell Surface Expression-Horse Radish Peroxidase (CSE-HRP) Assay;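 as to EC50 (with co-corrector): co-corrector chromenyl benzoic acid corrector at 2 or 3 µM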
Format: cell-based
Details: for Maximum % activity (with co-corrector) / Emax: maximum at any tested concentration; for Emax: read-out: Maximum % activity (without co-corrector)
Protocol: A cellular assay for measuring the F508delCFTR cell surface expression after correction with test compounds either without or with a co-corrector (2 μM of 3-[(2R,4R)-4-({[1-(2,2-difluoro-1,3-benzodioxol-5-yl)cyclopropyl]carbonyl}amino)-7-methoxy-3,4-dihydro-2H-chromen-2-yl]benzoic acid), was developed in human lung derived epithelial cell line (CFBE4lo−) (Veit G et al, (2012) Mol Biol Cell. 23(21): 4188-4202). The development was achieved by expressing the F508delCFTR mutation along with a horseradish peroxidase (HRP) in the fourth exofacial loop, and then measuring the HRP activity using luminescence readout from these cells, CFBE410-F508delCFTR-HRP, that were incubated overnight with the test corrector compounds, either without or with the co-corrector. For this primary assay, the CFBE410-F508delCFTR-HRP cells were plated in 384-well plates (Greiner Bio-one; Cat 781080) at 4,000 cells/well along with 0.5 μg/mL doxycycline to induce the F508delCFTR-HRP expression and further incubated at 37° C., 5% CO2 for 68-72 hours. The test compounds were then added either without or with a co-corrector at the required concentrations and further incubated for 18-24 hours at 33° C. The highest concentration tested was 20 μM or 30 μM (GI-1 to GIII-36) with an 8-point concentration response curve using a 3-fold dilution in both the test compound without or with the co-corrector. Three replicate plates were run to determine one EC50. All plates contained negative controls (dimethyl sulfoxide, DMSO) and positive control (2 μM or 3 μM (GI-1 to GIII-36) of 3-[(2R,4R)-4-({[1-(2,2-difluoro-1,3-benzodioxol-5-yl)cyclopropyl]carbonyl}amino)-7-methoxy-3,4-dihydro-2H-chromen-2-yl]benzoic acid) as well as on-plate concentration response of the positive control. Post incubation, the plates were washed 5× times with Dulbecco's phosphate buffered saline (DPBS), followed by the addition of the HRP substrate, luminol (50 4), and measuring the HRP activity using luminescence readout on EnVision® Multilabel Plate Reader (Perkin Elmer; product number 2104-0010). The raw counts from the experiment were analyzed using Accelrys® Assay Explorer v3.3.
Z′ greater than 0.5 was used as passing quality control criteria for the plates.
The Z′ is defined as: 1−[3*SDPositve Control+3*SDNegative Control/Absolute(MeanPositive Control−MeanNegative Control)] wherein “SD” is standard deviation.
The % activity measured at each of the 8 test concentrations of the test compound added either without or with a co-corrector (2 μM or 3 μM (GI-1 to GIII-36) of 3-[(2R,4R)-4-({[1-(2,2-difluoro-1,3-benzodioxol-5-yl)cyclopropyl]carbonyl}amino)-7-methoxy-3,4-dihydro-2H-chromen-2-yl]benzoic acid) was normalized to the on-plate positive control using the following formulae: % activity (Test compound without co-corrector)=[(test compound without co-corrector response DMSO response)/(positive control response DMSO response)]*100 % activity (Test compound with co-corrector)=[(test compound with co-corrector response DMSO response)/(positive control response DMSO response)]*100
The maximum % activity achieved for the test compound either without or with a co-corrector at any tested concentration is presented in Table 6 along with the respective EC50's calculated using the following general sigmoidal curve with variable Hill slope equation (described as Model 42 in the Accelrys® Assay Explorer v3.3 software): y=(a−d)/(1+(x/c)b)+d
General sigmoidal curve with concentration, response, top, bottom, EC50 and Hill slope. This model describes a sigmoidal curve with an adjustable baseline, a. The equation can be used to fit curves where response is either increasing or decreasing with respect to the independent variable, “x”.
“x” is a concentration of drug under test.
“a” is the maximum response, and “d” is the minimum response
“c” is the inflection point (EGO for the curve. That is, “y” is halfway between the lower and upper asymptotes when x=c.
“b” is the slope-factor or Hill coefficient. […]

[1] = test compound with co-corrector
[2] = test compound with co-corrector, read-out: EC50 (with co-corrector)
[3] = test compound without co-corrector
[4] = test compound without co-corrector, read-out: EC50 (without co-corrector)

T1 sequence (P13569 with tags, fused parts or gaps DEL508-508): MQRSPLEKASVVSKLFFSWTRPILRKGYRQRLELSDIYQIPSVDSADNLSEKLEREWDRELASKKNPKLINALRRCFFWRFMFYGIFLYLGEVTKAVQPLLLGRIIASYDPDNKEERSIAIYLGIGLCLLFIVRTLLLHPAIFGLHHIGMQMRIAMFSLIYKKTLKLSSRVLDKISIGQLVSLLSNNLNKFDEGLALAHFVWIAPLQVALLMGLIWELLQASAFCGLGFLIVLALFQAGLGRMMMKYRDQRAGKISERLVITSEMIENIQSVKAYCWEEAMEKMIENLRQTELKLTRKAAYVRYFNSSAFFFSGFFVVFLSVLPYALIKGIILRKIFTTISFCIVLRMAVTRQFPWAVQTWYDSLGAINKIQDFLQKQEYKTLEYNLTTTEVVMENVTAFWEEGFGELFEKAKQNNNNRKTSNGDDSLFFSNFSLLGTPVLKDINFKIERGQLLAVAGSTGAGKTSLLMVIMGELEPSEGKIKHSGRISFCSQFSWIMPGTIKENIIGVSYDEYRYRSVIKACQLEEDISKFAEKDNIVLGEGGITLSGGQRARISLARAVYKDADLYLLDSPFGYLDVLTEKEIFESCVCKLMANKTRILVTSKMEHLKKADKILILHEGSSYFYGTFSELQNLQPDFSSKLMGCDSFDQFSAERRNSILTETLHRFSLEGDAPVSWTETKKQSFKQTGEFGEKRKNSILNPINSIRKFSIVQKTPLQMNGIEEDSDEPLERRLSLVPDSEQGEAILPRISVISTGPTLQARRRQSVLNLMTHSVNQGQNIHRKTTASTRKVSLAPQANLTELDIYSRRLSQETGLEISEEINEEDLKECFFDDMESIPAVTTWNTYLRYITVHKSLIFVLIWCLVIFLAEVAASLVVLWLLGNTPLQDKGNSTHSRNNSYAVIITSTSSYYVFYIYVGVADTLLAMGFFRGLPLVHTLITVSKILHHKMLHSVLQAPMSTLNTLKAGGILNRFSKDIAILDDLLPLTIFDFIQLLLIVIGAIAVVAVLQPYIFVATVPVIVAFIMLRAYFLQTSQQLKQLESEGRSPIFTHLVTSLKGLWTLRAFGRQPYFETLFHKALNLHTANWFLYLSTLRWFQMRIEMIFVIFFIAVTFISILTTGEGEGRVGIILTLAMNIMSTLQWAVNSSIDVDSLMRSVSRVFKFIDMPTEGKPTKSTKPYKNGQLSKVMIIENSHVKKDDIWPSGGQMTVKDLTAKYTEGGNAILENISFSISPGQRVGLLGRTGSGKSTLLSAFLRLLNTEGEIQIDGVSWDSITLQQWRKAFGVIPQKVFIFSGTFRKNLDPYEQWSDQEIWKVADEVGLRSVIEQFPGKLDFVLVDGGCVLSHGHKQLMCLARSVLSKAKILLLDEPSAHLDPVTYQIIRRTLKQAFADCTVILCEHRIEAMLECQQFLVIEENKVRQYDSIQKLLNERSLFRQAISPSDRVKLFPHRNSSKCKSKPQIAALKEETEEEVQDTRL

Maximum % activity (with co-corrector) [1]	EC50 [2]	Emax [3]	EC50 [4]	Structure (SMILES)
+++ (≥350)	< 3 µM	> 150%	3 to 10 µM	Cc1ccc2c(S(=O)(=O)NC(=O)C3(c4cc(Cl)cnc4N4CCCC4)CC3)cccc2n1 [Example GI-36, 1-[5-chloro-2-(pyrrolidin-1-yl)pyridin-3-yl]-N-(2-methylquinoline-5-sulfonyl)cyclopropane-1-carboxamide]
+++ (≥350)	< 3 µM	> 150%	3 to 10 µM	CCc1cnc(N2CCCC2)c(C2(C(=O)NS(=O)(=O)c3cccc4[nH]ccc34)CC2)c1 [Example GI-37, 1-[5-ethyl-2-(pyrrolidin-1-yl)pyridin-3-yl]-N-(1H-indole-4-sulfonyl)cyclopropane-1-carboxamide]
+++ (≥350)	< 3 µM	> 150%	< 3 µM	CC(C)Oc1ccc(C2CCC2)nc1C1(C(=O)NS(=O)(=O)c2cccc3[nH]ccc23)CC1 [Example GI-38, 1-{6-cyclobutyl-3-[(propan-2-yl)oxy]pyridin-2-yl}-N-(1H-indole-4-sulfonyl)cyclopropane-1-carboxamide]
+++ (≥350)	< 3 µM	> 150%	< 3 µM	CC(C)Oc1ccc(C2CCC2)nc1C1(C(=O)NS(=O)(=O)c2cccc3ncccc23)CC1 [Example GI-39, 1-{6-cyclobutyl-3-[(propan-2-yl)oxy]pyridin-2-yl}-N-(quinoline-5-sulfonyl)cyclopropane-1-carboxamide]
+++ (≥350)	< 3 µM	> 150%	< 3 µM	CCc1cnc(OC(C)C)c(C2(C(=O)NS(=O)(=O)c3cccc4nc(C)ccc34)CC2)c1 [Example GI-40, 1-{5-ethyl-2-[(propan-2-yl)oxy]pyridin-3-yl}-N-(2-methylquinoline-5-sulfonyl)cyclopropane-1-carboxamide]
+++ (≥350)	< 3 µM	> 150%	< 3 µM	CCc1cnc(OC(C)C)c(C2(C(=O)NS(=O)(=O)c3cccc4[nH]ccc34)CC2)c1 [Example GI-41, 1-{5-ethyl-2-[(propan-2-yl)oxy]pyridin-3-yl}-N-(1H-indole-4-sulfonyl)cyclopropane-1-carboxamide]
+++ (≥350)	< 3 µM	> 150%	< 3 µM	Cc1cnc(OCC(C)C)c(C2(C(=O)NS(=O)(=O)c3cccc4ncccc34)CC2)c1 [Example GI-42, 1-[5-methyl-2-(2-methylpropoxy)pyridin-3-yl]-N-(quinoline-5-sulfonyl)cyclopropane-1-carboxamide]
+++ (≥350)	< 3 µM	> 150%	< 3 µM	Cc1cnc(OCC(C)C)c(C2(C(=O)NS(=O)(=O)c3cccc4nc(C)ccc34)CC2)c1 [Example GI-43, 1-[5-methyl-2-(2-methylpropoxy)pyridin-3-yl]-N-(2-methylquinoline-5-sulfonyl)cyclopropane-1-carboxamide]
+++ (≥350)	< 3 µM	> 150%	< 3 µM	Cc1cnc(OCC(C)C)c(C2(C(=O)NS(=O)(=O)c3cccc4[nH]ccc34)CC2)c1 [Example GI-44, N-(1H-indole-4-sulfonyl)-1-[5-methyl-2-(2-methylpropoxy)pyridin-3-yl]cyclopropane-1-carboxamide]
+++ (≥350)	< 3 µM	> 150%	< 3 µM	CCc1cnc(OCC(C)C)c(C2(C(=O)NS(=O)(=O)c3cccc4ncccc34)CC2)c1 [Example GI-45, 1-[5-ethyl-2-(2-methylpropoxy)pyridin-3-yl]-N-(quinoline-5-sulfonyl)cyclopropane-1-carboxamide]
+++ (≥350)	< 3 µM	> 150%	< 3 µM	CCc1cnc(OCC(C)C)c(C2(C(=O)NS(=O)(=O)c3cccc4nc(C)ccc34)CC2)c1 [Example GI-46, 1-[5-ethyl-2-(2-methylpropoxy)pyridin-3-yl]-N-(2-methylquinoline-5-sulfonyl)cyclopropane-1-carboxamide]
+++ (≥350)	< 3 µM	> 150%	< 3 µM	CCc1cnc(OCC(C)C)c(C2(C(=O)NS(=O)(=O)c3cccc4[nH]ccc34)CC2)c1 [Example GI-47, 1-[5-ethyl-2-(2-methylpropoxy)pyridin-3-yl]-N-(1H-indole-4-sulfonyl)cyclopropane-1-carboxamide]
+++ (≥350)	< 3 µM	> 150%	< 3 µM	CC(C)COc1ncc(C2CC2)cc1C1(C(=O)NS(=O)(=O)c2cccc3ncccc23)CC1 [Example GI-48, 1-[5-cyclopropyl-2-(2-methylpropoxy)pyridin-3-yl]-N-(quinoline-5-sulfonyl)cyclopropane-1-carboxamide]
+++ (≥350)	< 3 µM	> 150%	< 3 µM	Cc1ccc2c(S(=O)(=O)NC(=O)C3(c4cc(C5CC5)cnc4OCC(C)C)CC3)cccc2n1 [Example GI-49, 1-[5-cyclopropyl-2-(2-methylpropoxy)pyridin-3-yl]-N-(2-methylquinoline-5-sulfonyl)cyclopropane-1-carboxamide]
+++ (≥350)	< 3 µM	> 150%	< 3 µM	CC(C)COc1ncc(C2CC2)cc1C1(C(=O)NS(=O)(=O)c2cccc3[nH]ccc23)CC1 [Example GI-50, 1-[5-cyclopropyl-2-(2-methylpropoxy)pyridin-3-yl]-N-(1H-indole-4-sulfonyl)cyclopropane-1-carboxamide]
+++ (≥350)	< 3 µM	> 150%	< 3 µM	CC(C)COc1ncc(C2CCC2)cc1C1(C(=O)NS(=O)(=O)c2cccc3ncccc23)CC1 [Example GI-51, 1-[5-cyclobutyl-2-(2-methylpropoxy)pyridin-3-yl]-N-(quinoline-5-sulfonyl)cyclopropane-1-carboxamide]
+++ (≥350)	< 3 µM	> 150%	< 3 µM	CC(C)COc1ncc(C2CCC2)cc1C1(C(=O)NS(=O)(=O)c2cccc3[nH]ccc23)CC1 [Example GI-52, 1-[5-cyclobutyl-2-(2-methylpropoxy)pyridin-3-yl]-N-(1H-indole-4-sulfonyl)cyclopropane-1-carboxamide]
+++ (≥350)	< 3 µM	> 150%	< 3 µM	Cc1ccc2c(S(=O)(=O)NC(=O)C3(c4cc(C5CCC5)cnc4OCC(C)C)CC3)cccc2n1 [Example GI-53, 1-[5-cyclobutyl-2-(2-methylpropoxy)pyridin-3-yl]-N-(2-methylquinoline-5-sulfonyl)cyclopropane-1-carboxamide]
